# Source: patent US20210300936A1, “PYRAZOLOTRIAZOLOPYRIMIDINE DERIVATIVES AS A2A RECEPTOR ANTAGONIST” (BEIGENE, LTD., priority 2018, published 2021)
# Biological target: human A2A receptor (A2AR) (Homo sapiens, UniProt P29274)
# Experiment: Luciferase reporter assay (HEK293-A2AR-luc2p/CRE/Hygro cells, 3 nM CGS21680)
# Assay type: cell-based
# Conditions: 3 nM CGS21680, 5 h incubation
# Description: HEK293 cells were maintained in Dulbecco's modified Eagle's medium (DMEM, Gibco) supplemented with 10% fetal bovine serum (FBS, Thermo Scientific), 100 units/mL penicillin (Gibco), and 0.1 mg/mL streptomycin (Gibco) in a humidified 37° C. environment with 5% C02. Plasmid encoding wild-type human A2A receptor (A2AR) (in pcDNA3.1) was synthesized by Genscript (Nanjing, China). Transfection of the plasmids was performed in 6-well plates with 4×10^5 cells using Lipofectamin 2000 (ThermoFisher Scientific) according to the instruction of the manufacturer. Cell clones that stably express A2AR were established and maintained in the same complete medium as the HEK293 cells in addition of G-418 (Gibico). Expression level of A2AR in each single cell clone was determined using immunoblotting and FACS method. HEK293-A2AR stable cells were then transfected with pGL4.29[luc2P/CRE/Hygro] (Promega) luciferase reporter plasmid for establishing the HEK293-A2AR-luc2p/CRE/Hygro stable cell line.
# HEK293-A2AR-luc2p/CRE/Hygro cells were seeded at a density of 5,000 cells/well in DMEM with 1% FBS and 1 U/mL adenosine deaminase (ADA) (Sigma). After 18 h, the cells were treated with 3 nM CGS21680 plus a series dilution of A2AR antagonist, the compounds disclosed herein at the concentration of 0.1˜10000 nM, prepared in DMEM with 1% FBS. After 5 h incubation, the luciferase activity in cells were measured using the Bright-Glo Luciferase Assay System (Promega) according to manufacturer's instructions. The luminescence signal was measured using a PHERAstar FS plate reader (BMG Labtech). […] Maximal luminescence intensity was determined in the presence of 3 nM CGS21680 and was set as 100%. The IC50 value was calculated from a dose dependent inhibition curve across the range of compound concentrations.
# Sequence of human A2A receptor (A2AR) (P29274 whole entry): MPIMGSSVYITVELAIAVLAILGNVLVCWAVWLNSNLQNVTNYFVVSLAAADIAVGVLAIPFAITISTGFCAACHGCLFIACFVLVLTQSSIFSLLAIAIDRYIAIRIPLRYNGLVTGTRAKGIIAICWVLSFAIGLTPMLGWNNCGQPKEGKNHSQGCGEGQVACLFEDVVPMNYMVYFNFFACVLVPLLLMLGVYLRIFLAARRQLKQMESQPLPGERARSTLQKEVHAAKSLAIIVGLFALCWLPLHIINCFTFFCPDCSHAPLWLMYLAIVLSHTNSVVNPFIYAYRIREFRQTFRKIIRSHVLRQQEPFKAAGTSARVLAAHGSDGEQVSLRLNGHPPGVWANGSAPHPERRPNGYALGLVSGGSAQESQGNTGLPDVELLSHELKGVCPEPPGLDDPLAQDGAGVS
row,Compound,IC50 [nM]
1,"COCCOc1ccc(N2CCN(C(=O)C(C(C)C)n3ncc4c3nc(N)n3nc(-c5ccco5)nc43)CC2)cc1 (centres unmarked) [Compound A2, 2-(5-amino-2-(furan-2-yl)-7H-pyrazolo[4,3-e][1,2,4]Triazolo[1,5-c]pyrimidin-7-yl)-1-(4-(4-(2-methoxyethoxy)phenyl)piperazin-1-yl)-3-methylbutan-1-one]",96.9
2,"COCCOc1ccc(N2CCN(C(=O)C(C)(C)n3ncc4c3nc(N)n3nc(-c5ccco5)nc43)CC2)cc1 [Compound A3, 2-(5-amino-2-(furan-2-yl)-7H-pyrazolo[4,3-e][1,2,4]triazolo[1,5-c]pyrimidin-7-yl)-1-(4-(4-(2-methoxyethoxy)phenyl)piperazin-1-yl)-2-methylpropan-1-one]",362
3,"CCC(C(=O)N1CCN(c2ccc(OCCOC)cc2)CC1)n1ncc2c1nc(N)n1nc(-c3ccco3)nc21 (centres unmarked) [Compound A4, 2-(5-amino-2-(furan-2-yl)-7H-pyrazolo[4,3-e][1,2,4]triazolo[1,5-c]pyrimidin-7-yl)-1-(4-(4-(2-methoxyethoxy)phenyl)piperazin-1-yl)butan-1-one]",43.5
4,"CCCC(C(=O)N1CCN(c2ccc(OCCOC)cc2)CC1)n1ncc2c1nc(N)n1nc(-c3ccco3)nc21 (centres unmarked) [Compound A5, 2-(5-amino-2-(furan-2-yl)-7H-pyrazolo[4,3-e][1,2,4]triazolo[1,5-c]pyrimidin-7-yl)-1-(4-(4-(2-methoxyethoxy)phenyl)piperazin-1-yl)pentan-1-one]",9.1
5,"CCCC(C(=O)N1CCN(c2ccc(OCCOCCOC)cc2)CC1)n1ncc2c1nc(N)n1nc(-c3ccco3)nc21 (centres unmarked) [Compound A6, 2-(5-amino-2-(furan-2-yl)-7H-pyrazolo[4,3-e][1,2,4]triazolo[1,5-c]pyrimidin-7-yl)-1-(4-(4-(2-(2-methoxyethoxy)ethoxy)phenyl)piperazin-1-yl)pentan-1-one]",9.5
6,"CC(C(=O)N1CCN(c2ccc(OCCN)cc2)CC1)n1ncc2c1nc(N)n1nc(-c3ccco3)nc21 (centres unmarked) [Compound A7, 2-(5-amino-2-(furan-2-yl)-7H-pyrazolo[4,3-e][1,2,4]triazolo[1,5-c]pyrimidin-7-yl)-1-(4-(4-(2-aminoethoxy)phenyl)piperazin-1-yl)propan-1-one]",23.1
7,"CCC(C(=O)N1CCN(c2ccc(OCCOCCOC)cc2)CC1)n1ncc2c1nc(N)n1nc(-c3ccco3)nc21 (centres unmarked) [Compound A8, 2-(5-amino-2-(furan-2-yl)-7H-pyrazolo[4,3-e][1,2,4]triazolo[1,5-c]pyrimidin-7-yl)-1-(4-(4-(2-(2-methoxyethoxy)ethoxy)phenyl)piperazin-1-yl)butan-1-one]",41.5
8,"COCCOCCOc1ccc(N2CCN(C(=O)C(C)n3ncc4c3nc(N)n3nc(-c5ccco5)nc43)CC2)cc1 (centres unmarked) [Compound A9, 2-(5-amino-2-(furan-2-yl)-7H-pyrazolo[4,3-e][1,2,4]triazolo[1,5-c]pyrimidin-7-yl)-1-(4-(4-(2-(2-methoxyethoxy)ethoxy)phenyl)piperazin-1-yl)propan-1-one]",59.1
9,"CCCCC(C(=O)N1CCN(c2ccc(OCCOC)cc2)CC1)n1ncc2c1nc(N)n1nc(-c3ccco3)nc21 (centres unmarked) [Compound A10, 2-(5-amino-2-(furan-2-yl)-7H-pyrazolo[4,3-e][1,2,4]triazolo[1,5-c]pyrimidin-7-yl)-1-(4-(4-(2-methoxyethoxy)phenyl)piperazin-1-yl)hexan-1-one]",6.3
10,"CCCCC(C(=O)N1CCN(c2ccc(OCCOCCOC)cc2)CC1)n1ncc2c1nc(N)n1nc(-c3ccco3)nc21 (centres unmarked) [Compound A11, 2-(5-amino-2-(furan-2-yl)-7H-pyrazolo[4,3-e][1,2,4]triazolo[1,5-c]pyrimidin-7-yl)-1-(4-(4-(2-(2-methoxyethoxy)ethoxy)phenyl)piperazin-1-yl)hexan-1-one]",6.9
11,"COCCOCCOc1ccc(N2CCN(C(=O)C(C(C)C)n3ncc4c3nc(N)n3nc(-c5ccco5)nc43)CC2)cc1 (centres unmarked) [Compound A12, 2-(5-amino-2-(furan-2-yl)-7H-pyrazolo[4,3-e][1,2,4]triazolo[1,5-c]pyrimidin-7-yl)-1-(4-(4-(2-(2-methoxyethoxy)ethoxy)phenyl)piperazin-1-yl)-3-methylbutan-1-one]",113
12,"COCCOc1ccc(N2CCN(C(=O)C(c3ccccc3)n3ncc4c3nc(N)n3nc(-c5ccco5)nc43)CC2)cc1 (centres unmarked) [Compound A13, 2-(5-amino-2-(furan-2-yl)-7H-pyrazolo[4,3-e][1,2,4]triazolo[1,5-c]pyrimidin-7-yl)-1-(4-(4-(2-methoxyethoxy)phenyl)piperazin-1-yl)-2-phenylethan-1-one]",2.9
13,"COCCOCCOc1ccc(N2CCN(C(=O)C(c3ccccc3)n3ncc4c3nc(N)n3nc(-c5ccco5)nc43)CC2)cc1 (centres unmarked) [Compound A14, 2-(5-amino-2-(furan-2-yl)-7H-pyrazolo[4,3-e][1,2,4]triazolo[1,5-c]pyrimidin-7-yl)-1-(4-(4-(2-(2-methoxyethoxy)ethoxy)phenyl)piperazin-1-yl)-2-phenylethan-1-one]",12.7
14,"COCCOc1ccc(N2CCN(C(=O)C(C3CC3)n3ncc4c3nc(N)n3nc(-c5ccco5)nc43)CC2)cc1 (centres unmarked) [Compound A15, 2-(5-amino-2-(furan-2-yl)-7H-pyrazolo[4,3-e][1,2,4]triazolo[1,5-c]pyrimidin-7-yl)-2-cyclopropyl-1-(4-(4-(2-methoxyethoxy)phenyl)piperazin-1-yl)ethan-1-one]",8.4
15,"COCCOc1ccc(N2CCN(C(=O)C(CC(C)C)n3ncc4c3nc(N)n3nc(-c5ccco5)nc43)CC2)cc1 (centres unmarked) [Compound A16, 2-(5-amino-2-(furan-2-yl)-7H-pyrazolo[4,3-e][1,2,4]triazolo[1,5-c]pyrimidin-7-yl)-1-(4-(4-(2-methoxyethoxy)phenyl)piperazin-1-yl)-4-methylpentan-1-one]",1.3
16,"COCCOCCOc1ccc(N2CCN(C(=O)C(CC(C)C)n3ncc4c3nc(N)n3nc(-c5ccco5)nc43)CC2)cc1 (centres unmarked) [Compound A17, 2-(5-amino-2-(furan-2-yl)-7H-pyrazolo[4,3-e][1,2,4]triazolo[1,5-c]pyrimidin-7-yl)-1-(4-(4-(2-(2-methoxyethoxy)ethoxy)phenyl)piperazin-1-yl)-4-methylpentan-1-one]",1.1
17,"CC(C(=O)N1CCN(c2ccc(OCCN(C)C)cc2)CC1)n1ncc2c1nc(N)n1nc(-c3ccco3)nc21 (centres unmarked) [Compound A18, 2-(5-amino-2-(furan-2-yl)-7H-pyrazolo[4,3-e][1,2,4]triazolo[1,5-c]pyrimidin-7-yl)-1-(4-(4-(2-(dimethylamino)ethoxy)phenyl)piperazin-1-yl)propan-1-one]",30.6
18,"COCCOc1ccc(N2CCN(C(=O)C(Cc3ccccc3)n3ncc4c3nc(N)n3nc(-c5ccco5)nc43)CC2)cc1 (centres unmarked) [Compound A19, 2-(5-amino-2-(furan-2-yl)-7H-pyrazolo[4,3-e][1,2,4]triazolo[1,5-c]pyrimidin-7-yl)-1-(4-(4-(2-methoxyethoxy)phenyl)piperazin-1-yl)-3-phenylpropan-1-one]",6.5
19,"CCCC(C(=O)N1CCN(c2ccc(F)cc2F)CC1)n1ncc2c1nc(N)n1nc(-c3ccco3)nc21 (centres unmarked) [Compound A20, 2-(5-amino-2-(furan-2-yl)-7H-pyrazolo[4,3-e][1,2,4]triazolo[1,5-c]pyrimidin-7-yl)-1-(4-(2,4-difluorophenyl)piperazin-1-yl)pentan-1-one]",4.3
20,"COCCOCCOc1ccc(N2CCN(C(=O)C(C3CC3)n3ncc4c3nc(N)n3nc(-c5ccco5)nc43)CC2)cc1 (centres unmarked) [Compound A21, 2-(5-amino-2-(furan-2-yl)-7H-pyrazolo[4,3-e][1,2,4]triazolo[1,5-c]pyrimidin-7-yl)-2-cyclopropyl-1-(4-(4-(2-(2-methoxyethoxy)ethoxy)phenyl)piperazin-1-yl)ethan-1-one]",21.6
21,"CC(C)CC(C(=O)N1CCN(c2ccc(F)cc2F)CC1)n1ncc2c1nc(N)n1nc(-c3ccco3)nc21 (centres unmarked) [Compound A22, 2-(5-amino-2-(furan-2-yl)-7H-pyrazolo[4,3-e][1,2,4]triazolo[1,5-c]pyrimidin-7-yl)-1-(4-(2,4-difluorophenyl)piperazin-1-yl)-4-methylpentan-1-one]",1.5
22,"COCCOc1ccc(N2CCN(C(=O)C(CC(C)C)n3ncc4c3nc(N)n3nc(-c5ccco5)nc43)CC2)c(F)c1 (centres unmarked) [Compound A23, 2-(5-amino-2-(furan-2-yl)-7H-pyrazolo[4,3-e][1,2,4]triazolo[1,5-c]pyrimidin-7-yl)-1-(4-(2-fluoro-4-(2-methoxyethoxy)phenyl)piperazin-1-yl)-4-methylpentan-1-one]",1.4
23,"CCCC(C(=O)N1CCN(c2ccc(OCCOC)cc2F)CC1)n1ncc2c1nc(N)n1nc(-c3ccco3)nc21 (centres unmarked) [Compound A24, 2-(5-amino-2-(furan-2-yl)-7H-pyrazolo[4,3-e][1,2,4]triazolo[1,5-c]pyrimidin-7-yl)-1-(4-(2-fluoro-4-(2-methoxyethoxy)phenyl)piperazin-1-yl)pentan-1-one]",4.4
